According to publication PMC9458935, “Modulation of type 1 cannabinoid receptor activity by cannabinoid by-products from Cannabis sativa and non-cannabis phytomolecules” (Frontiers in Pharmacology, 2022):
Like-named read-outs stand apart in the source and are kept apart here.

Columns and labels:
hCB1R [1] = target: T1, hCB1R (Homo sapiens, UniProt P21554); experiment: cell-based; format: cell-based
hCB1R [2] = target: T1, hCB1R; experiment: cell-based; format: cell-based; remark: listed apart in the source
hCB1R [3] = target: T1, hCB1R; experiment: biochemical; format: binding
male C57BL/6 mice [4] = experiment: Anti-nociception, warm water tail-flick test; format: in vivo, mouse; details: 20 min post-injection; for anti-nociceptive effect, tail-flick: 10 mg/kg i.p., male mice; for effect on ∆9-THC-dependent anti-nociception, tail-flick: 10 mg/kg phytomolecule + 10 mg/kg ∆9-THC i.p.
Protocol: (§1) Male C57BL/6 mice between 8 and 12 weeks of age were used for these studies. Animals were group housed at the Laboratory Animal Services Unit (LASU) at the University of Saskatchewan (3 animals/cage) with a standard 12:12 light-dark cycle, ad libitum access to food and water, and environmental enrichment. Compounds were prepared in the vehicle [ethanol and cremophor in saline (1:1:8)] and administered intraperitoneally (i.p.). Catalepsy was assessed in the bar holding assay 5 min after compound administration with animals placed so that their forepaws clasped a 0.7-cm ring clamp 4.5 cm above the surface of the testing space ([Garai et al., 2020]). The length of time the ring was held was recorded up to 60 s (i.e., percent maximum possible effect [MPE] 60 s) with the trial ending if the mouse turned its head or body or made three consecutive escape attempts. Body temperature was measured 15 min after compound administration by using a rectal thermometer. Anti-nociceptive effects were measured in warm water (52 ± 2°C) using the tail-flick test 20 min after compound administration to a maximum of 20 s (i.e., percent maximum possible effect [MPE] 20 s). Compounds were administered at the doses indicated. Experimenters were blinded to treatment for all behavioral assessments and analyses. Animals were purchased, rather than bred, to reduce animal numbers. In all cases, experiments were performed with the approval of the University Animal Care Committee (UACC) at the University of Saskatchewan and in keeping with the guidelines of the Canadian Council on Animal Care (CCAC).

male C57BL/6 mice [5] = experiment: Body temperature, rectal thermometer; format: in vivo, mouse; details: 15 min post-injection; for body temperature: 10 mg/kg i.p., male mice; for effect on ∆9-THC-dependent change of body temperature: 10 mg/kg phytomolecule + 10 mg/kg ∆9-THC i.p.
Protocol: as §1

male C57BL/6 mice [6] = experiment: Catalepsy, bar holding assay; format: in vivo, mouse; details: 5 min post-injection; for catalepsy: 10 mg/kg i.p., male mice; for effect on ∆9-THC-dependent catalepsy: 10 mg/kg phytomolecule + 10 mg/kg ∆9-THC i.p.
Protocol: as §1

[7] = CHO-K1, read-out: βarrestin2 recruitment Emax
[8] = CHO-K1, read-out: cAMP inhibition Emax
[9] = CHO-K1; read-out: βarrestin2 recruitment Emax
[10] = CHO-K1; read-out: cAMP inhibition Emax
[11] = co-treatment with 100 nM ∆9-THC
[12] = compound alone; 90 min; value with 95% CI; read-out: βarrestin2 recruitment EC50
[13] = compound alone; 10 µM forskolin, 90 min; value with 95% CI; read-out: cAMP inhibition EC50

T1 sequence (P21554 whole entry): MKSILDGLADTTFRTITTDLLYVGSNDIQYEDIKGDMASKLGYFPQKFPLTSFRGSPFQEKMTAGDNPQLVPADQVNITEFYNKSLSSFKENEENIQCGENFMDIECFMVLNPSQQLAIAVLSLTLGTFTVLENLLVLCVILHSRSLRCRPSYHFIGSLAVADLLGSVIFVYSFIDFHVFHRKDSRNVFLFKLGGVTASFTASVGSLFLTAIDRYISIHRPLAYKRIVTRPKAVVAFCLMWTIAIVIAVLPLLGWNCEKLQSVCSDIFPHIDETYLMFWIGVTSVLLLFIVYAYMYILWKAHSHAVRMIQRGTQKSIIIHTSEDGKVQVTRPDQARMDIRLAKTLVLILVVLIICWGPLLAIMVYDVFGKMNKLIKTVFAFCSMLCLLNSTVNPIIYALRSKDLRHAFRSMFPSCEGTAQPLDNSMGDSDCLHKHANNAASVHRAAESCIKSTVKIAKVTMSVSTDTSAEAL

SMILES | Emax (hCB1R [1]; [7]) [%] | effect on cAMP inhibition by 100 nM ∆9-THC (hCB1R [2]) | Emax (hCB1R [2]; [8]) [%] | [3H]CP55,940 Emin (hCB1R [3]) [%] | anti-nociceptive effect, tail-flick (male C57BL/6 mice [4]) | body temperature (male C57BL/6 mice [5]) | catalepsy (male C57BL/6 mice [6]) | Emax (hCB1R [1]; [9]) [%] | Emax (hCB1R [2]; [10]) [%] | effect on cAMP inhibition by 100 nM ∆9-THC (hCB1R [2]; [11]) | Ki (hCB1R [3]) [µM] | effect on [3H]CP55,940 displacement by 100 nM ∆9-THC (hCB1R [3]) | further results
CCCCCc1cc(O)c2c(c1)OC(C)(C)[C@@H]1CCC(CO)=C[C@@H]21 [11-OH-∆^9-THC] | 47 ± 9.4 | inhibited the activity of 100 nM ∆^9-THC in a concentration-dependent manner | 28 ± 3.9 | 70 ± 1.7 | greater hypothermia and anti-nociceptive responses relative to ∆^9-THC | greater hypothermia | equal catalepsy |  |  |  |  |  | EC50 (hCB1R [1]): > 10 µM; effect on βarrestin2 recruitment by 100 nM ∆9-THC (hCB1R [1]): elevated βarrestin2 recruitment above the activity of 100 nM ∆^9-THC; EC50 (hCB1R [2]): 0.011 µM
O=C(/C=C/C=C/c1ccc2c(c1)OCO2)N1CCCCC1 [Piperine, piperine] |  |  |  | 37 ± 2.8 |  |  |  | 7.9 ± 0.97 | 5.5 ± 0.63 | did not change the cAMP inhibitory effects of 100 nM ∆^9-THC | > 10 | did not significantly alter [^3H]CP55,940 displacement | EC50 (hCB1R [1]): > 10 µM; EC50 (hCB1R [2]): > 10 µM
CCCCCc1cc(O)c2c(c1)OC(C)(C)[C@@H]1CC=C(C)C[C@@H]21 [∆^8-THC] | 21 ± 1.8 | neither ∆^8-THC nor CBN produced a significant change in cAMP inhibition | 56 ± 9.6 | 30 ± 5.0 | produced an anti-nociceptive effect that was not different from ∆^9-THC | did not produce catalepsy or reduce body temperature | did not produce catalepsy |  |  |  |  |  | 
O=c1c(O)c(-c2ccc(O)c(O)c2)oc2cc(O)cc(O)c12 [Quercetin, quercetin] |  |  |  |  |  |  |  |  |  |  |  |  | effect on ∆9-THC-dependent anti-nociception, tail-flick (male C57BL/6 mice [4]): blocked ∆^9-THC’s effect in the nociception test; effect on ∆9-THC-dependent change of body temperature (male C57BL/6 mice [5]): capable of blocking ∆^9-THC’s effects on catalepsy and body temperature; effect on ∆9-THC-dependent catalepsy (male C57BL/6 mice [6]): capable of blocking ∆^9-THC’s effects on catalepsy
CCCCCCCCCCCCCCCC(=O)NCCO [PEA, palmitoylethanolamide] | 5.6 ± 3.3 | augmented the activity of 100 nM ∆^9-THC in a concentration-dependent manner | 26 ± 1.8 | 46 ± 5.3 |  |  |  |  |  |  | > 10 | did not significantly alter [^3H]CP55,940 displacement | concentration at which CB1R- and ∆9-THC-dependent βarrestin2 recruitment was augmented (hCB1R [1]): approximately 1 μM; effect on βarrestin2 recruitment by 100 nM ∆9-THC (hCB1R [1]): slightly increased βarrestin2 recruitment; concentration at which CB1R- and ∆9-THC-dependent inhibition of cAMP was augmented (hCB1R [2]): approximately 1 μM; type of agonism in cAMP inhibition (hCB1R [2]): weak partial agonist inhibition of cAMP accumulation; concentration at which [3H]CP55,940 binding was reduced (hCB1R [3]): exceeding 1 μM; effect on ∆9-THC-dependent anti-nociception, tail-flick (male C57BL/6 mice [4]): did not block the effect; effect on ∆9-THC-dependent change of body temperature (male C57BL/6 mice [5]): capable of blocking ∆^9-THC’s effects on catalepsy and body temperature; effect on ∆9-THC-dependent catalepsy (male C57BL/6 mice [6]): capable of blocking ∆^9-THC’s effects on catalepsy
CCCCCCC(C)(C)c1ccc(C2CC(O)CCC2CCCO)c(O)c1 (centres unmarked) [CP55,940, reference compound] | 100 ± 3.3 |  | 100 ± 6.2 | 1.0 ± 4.7 |  |  |  |  |  |  |  |  | 
CCCCCc1cc(O)c2c(c1)OC(C)(C)C1=C2CC(C)CC1 (centres unmarked) [∆^6a,10a-THC] |  |  |  |  | did not produce such effect | did not produce catalepsy or reduce body temperature | did not produce catalepsy |  |  |  |  |  | 
O=C(O[C@@H]1Cc2c(O)cc(O)cc2O[C@@H]1c1cc(O)c(O)c(O)c1)c1cc(O)c(O)c(O)c1 [Egc G, epigallocatechin gallate] |  |  |  | 95 ± 3.4 |  |  |  | 7.2 ± 0.85 | 5.6 ± 0.52 | inhibited the activity of 100 nM ∆^9-THC in a concentration-dependent manner | > 10 | augmented the displacement of [^3H]CP55,940 from hCB1R by ∆^9-THC | EC50 (hCB1R [1]; [12]): > 10 µM; EC50 (hCB1R [2]; [13]): > 10 µM
COc1cc(/C=C/C(=O)CC(=O)/C=C/c2ccc(O)c(OC)c2)ccc1O [Curcumin, curcumin] |  |  |  | 100 ± 2.0 |  |  |  | 8.9 ± 2.2 | 6.2 ± 0.76 | inhibited the activity of 100 nM ∆^9-THC in a concentration-dependent manner | > 10 | did not significantly alter [^3H]CP55,940 displacement | EC50 (hCB1R [1]; [12]): > 10 µM; EC50 (hCB1R [2]; [13]): > 10 µM; effect on ∆9-THC-dependent anti-nociception, tail-flick (male C57BL/6 mice [4]): blocked ∆^9-THC’s effect in the nociception test; effect on ∆9-THC-dependent change of body temperature (male C57BL/6 mice [5]): capable of blocking ∆^9-THC’s effects on catalepsy and body temperature; effect on ∆9-THC-dependent catalepsy (male C57BL/6 mice [6]): capable of blocking ∆^9-THC’s effects on catalepsy
CCCCCc1cc(O)cc(O)c1 [Olivetol, olivetol] |  |  |  | 57 ± 5.5 |  |  |  | 8.3 ± 2.1 | 5.6 ± 1.6 | did not change the cAMP inhibitory effects of 100 nM ∆^9-THC | 0.017 | did not significantly alter [^3H]CP55,940 displacement | EC50 (hCB1R [1]; [12]): > 10 µM; EC50 (hCB1R [2]; [13]): > 10 µM
CCCCCc1cc(O)c2c(c1)OC(C)(C)c1ccc(C)cc1-2 [CBN, cannabinol] | 6.9 ± 0.96 | neither ∆^8-THC nor CBN produced a significant change in cAMP inhibition | 64 ± 4.6 | 71 ± 3.1 | did not produce such effect | did not produce catalepsy or reduce body temperature | did not produce catalepsy |  |  |  | 0.14 |  | EC50 (hCB1R [1]): > 10 µM; EC50 (hCB1R [2]): 0.049 µM; fold less potent than CP55,940 in cAMP inhibition (hCB1R [2]): ~49 x
